Reference: US20230274799A1, “SYSTEMS AND METHODS FOR PATIENT STRATIFICATION AND IDENTIFICATION OF POTENTIAL BIOMARKERS” (Berg LLC, priority 2016, published 2023)

Columns and labels:
[1] = Pharmacokinetics of Coenzyme Q10 in plasma during and after 144-hour continuous IV infusion; assay type: in vivo, human; set-up: Coenzyme Q10 concentration in plasma, Mean ± SD: unit not given here
Protocol: Pharmacokinetics of Coenzyme Q10 was measured in the patients at time zero and at several time points during and after the 144-hour continuous intravenous (IV) infusion with Coenzyme Q10.

solid tumors = test: Tumor response evaluation in Phase I trial; assay type: in vivo, human; conditions: Sixteen of 66 patients
Protocol: Tumor response was evaluated at week 2 and then after every 2 cycles. Sixteen of 66 patients (24%) maintained a minimum of Stable Disease for >4 cycles. Tumor response data was used to stratify the patients into “overall clinical benefit” or “no clinical benefit” groups.

COC1=C(OC)C(=O)C(C/C=C(\C)CC/C=C(\C)CC/C=C(\C)CC/C=C(\C)CC/C=C(\C)CC/C=C(\C)CC/C=C(\C)CC/C=C(\C)CC/C=C(\C)CCC=C(C)C)=C(C)C1=O [Coenzyme Q10]
Coenzyme Q10 concentration in plasma, Mean ± SD ([1]; 274 mg/kg/week, Arm 1, n = 3 (so in the source), time 24 hr): 261 ± 149
Coenzyme Q10 concentration in plasma, Mean ± SD ([1]; 274 mg/kg/week, Arm 1, n = 3 (so in the source), time 71.5 hr): 390 ± 260
Coenzyme Q10 concentration in plasma, Mean ± SD ([1]; 274 mg/kg/week, Arm 1, n = 3 (so in the source), time 73 hr): 329 ± 260
Coenzyme Q10 concentration in plasma, Mean ± SD ([1]; 274 mg/kg/week, Arm 1, n = 3 (so in the source), time 74 hr): 335 ± 242
Coenzyme Q10 concentration in plasma, Mean ± SD ([1]; 274 mg/kg/week, Arm 1, n = 3 (so in the source), time 96 hr): 416 ± 291
Coenzyme Q10 concentration in plasma, Mean ± SD ([1]; 274 mg/kg/week, Arm 1, n = 3 (so in the source), time 140 hr): 513 ± 213
Coenzyme Q10 concentration in plasma, Mean ± SD ([1]; 274 mg/kg/week, Arm 1, n = 3 (so in the source), time 142 hr): 514 ± 260
Coenzyme Q10 concentration in plasma, Mean ± SD ([1]; 274 mg/kg/week, Arm 1, n = 3 (so in the source), time 143.5 hr): 510 ± 259
Coenzyme Q10 concentration in plasma, Mean ± SD ([1]; 274 mg/kg/week, Arm 1, n = 3 (so in the source), time 146 hr): 486 ± 254
Coenzyme Q10 concentration in plasma, Mean ± SD ([1]; 274 mg/kg/week, Arm 1, n = 3 (so in the source), time 148 hr): 380 ± 219
Coenzyme Q10 concentration in plasma, Mean ± SD ([1]; 274 mg/kg/week, Arm 1, n = 4 (footnote e), time 96 hr): 407 ± 195^e
Coenzyme Q10 concentration in plasma, Mean ± SD ([1]; 274 mg/kg/week, Arm 1, n = 4 (footnote e), time 140 hr): 517 ± 185^e
Coenzyme Q10 concentration in plasma, Mean ± SD ([1]; 274 mg/kg/week, Arm 1, n = 4 (footnote e), time 142 hr): 528 ± 179^e
Coenzyme Q10 concentration in plasma, Mean ± SD ([1]; 274 mg/kg/week, Arm 1, n = 5 (footnote d), time 4 hr): 181 ± 56^d
Coenzyme Q10 concentration in plasma, Mean ± SD ([1]; 274 mg/kg/week, Arm 1, n = 5 (footnote d), time 71.5 hr): 265 ± 188^d
Coenzyme Q10 concentration in plasma, Mean ± SD ([1]; 274 mg/kg/week, Arm 1, n = 5 (footnote d), time 146 hr): 460 ± 249^d
Coenzyme Q10 concentration in plasma, Mean ± SD ([1]; 274 mg/kg/week, Arm 1, n = 5 (footnote d), time 148 hr): 397 ± 230^d
Coenzyme Q10 concentration in plasma, Mean ± SD ([1]; 274 mg/kg/week, Arm 1, n = 6, time 0 hr): 0
Coenzyme Q10 concentration in plasma, Mean ± SD ([1]; 274 mg/kg/week, Arm 1, n = 6, time 1 hr): 188 ± 46
Coenzyme Q10 concentration in plasma, Mean ± SD ([1]; 274 mg/kg/week, Arm 1, n = 6, time 2 hr): 190 ± 38
Coenzyme Q10 concentration in plasma, Mean ± SD ([1]; 274 mg/kg/week, Arm 1, n = 6, time 24 hr): 287 ± 189
Coenzyme Q10 concentration in plasma, Mean ± SD ([1]; 274 mg/kg/week, Arm 1, n = 6, time 73 hr): 367 ± 313
Coenzyme Q10 concentration in plasma, Mean ± SD ([1]; 274 mg/kg/week, Arm 1, n = 6, time 74 hr): 387 ± 332
Coenzyme Q10 concentration in plasma, Mean ± SD ([1]; 274 mg/kg/week, Arm 1, n = 6, time 143.5 hr): 560 ± 246
Coenzyme Q10 concentration in plasma, Mean ± SD ([1]; 342 mg/kg/week, Arm 1, n = 4 (footnote e), time 96 hr): 411 ± 189^e
Coenzyme Q10 concentration in plasma, Mean ± SD ([1]; 342 mg/kg/week, Arm 1, n = 4 (footnote e), time 140 hr): 695 ± 414^e
Coenzyme Q10 concentration in plasma, Mean ± SD ([1]; 342 mg/kg/week, Arm 1, n = 4 (footnote e), time 143.5 hr): 789 ± 161^e
Coenzyme Q10 concentration in plasma, Mean ± SD ([1]; 342 mg/kg/week, Arm 1, n = 4 (footnote e), time 146 hr): 679 ± 141^e
Coenzyme Q10 concentration in plasma, Mean ± SD ([1]; 342 mg/kg/week, Arm 1, n = 4 (footnote e), time 148 hr): 596 ± 143^e
Coenzyme Q10 concentration in plasma, Mean ± SD ([1]; 342 mg/kg/week, Arm 1, n = 5, time 0 hr): 0
Coenzyme Q10 concentration in plasma, Mean ± SD ([1]; 342 mg/kg/week, Arm 1, n = 5, time 1 hr): 289 ± 59
Coenzyme Q10 concentration in plasma, Mean ± SD ([1]; 342 mg/kg/week, Arm 1, n = 5, time 2 hr): 297 ± 81
Coenzyme Q10 concentration in plasma, Mean ± SD ([1]; 342 mg/kg/week, Arm 1, n = 5, time 4 hr): 304 ± 90
Coenzyme Q10 concentration in plasma, Mean ± SD ([1]; 342 mg/kg/week, Arm 1, n = 5, time 24 hr): 463 ± 274
Coenzyme Q10 concentration in plasma, Mean ± SD ([1]; 342 mg/kg/week, Arm 1, n = 5, time 71.5 hr): 563 ± 188
Coenzyme Q10 concentration in plasma, Mean ± SD ([1]; 342 mg/kg/week, Arm 1, n = 5, time 73 hr): 514 ± 205
Coenzyme Q10 concentration in plasma, Mean ± SD ([1]; 342 mg/kg/week, Arm 1, n = 5, time 74 hr): 537 ± 219
Coenzyme Q10 concentration in plasma, Mean ± SD ([1]; 342 mg/kg/week, Arm 1, n = 5, time 142 hr): 699 ± 290
Mean plasma concentrations of Coenzyme Q10, comparison of doses ([1]; Arm 1 (monotherapy), exception: 96-hour sampling time, similar): higher for the 342 mg/kg/week dose than for the 274 mg/kg/week dose
Effect of concomitant chemotherapy on the pharmacokinetics of Coenzyme Q10 ([1]; Arm 1 vs Arm 2 at any of the dose levels): no apparent effect
Plasma profiles of Coenzyme Q10, comparison of doses ([1]; Arm 2 (chemotherapy combination therapy), first 72 hours of the infusion, distinctly higher during the second 72 hours): slightly higher for the 274 mg/kg/week dose than for the 220 mg/kg/week dose
Patients who maintained a minimum of Stable Disease for >4 cycles (solid tumors): 24%
